In the supplement of paper PMC10307832:

Experiments:
Test in all cases: relative viability (nuclei count vs DMSO), 5 days (fraction); higher = more cells survive
RU-SKI 43 + Pemetrexed = compound: CC[C@@H](C)CNCC(=O)N1CCC2=C([C@@H]1COC3=CC=CC(=C3)C)C=CS2 [RU-SKI 43] + Nc1nc2[nH]cc(CCc3ccc(C(=O)N[C@@H](CCC(=O)O)C(=O)O)cc3)c2c(=O)[nH]1 [Pemetrexed] (partner 0.2 µM)
Method in brief: (§1)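 Lung cancer cell lines were seeded in 1536-well plates and dosed by pin tool the next day, with either a single drug or a fixed anchor-drug dose combined with five library-drug doses (not always all listed) spaced in √10 steps. Five days later, one step fixed the cells and stained their nuclei (final 0.05% Triton X-100, 1% formaldehyde, 1 ug/ml Hoechst), and nuclei were counted on 4× images. Relative viability is the nuclei count in treated wells divided by the count in vehicle wells, and each value is the median of duplicate plates.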

Irinotecan + Pictilisib = compound: CCc1c2c(nc3ccc(OC(=O)N4CCC(N5CCCCC5)CC4)cc13)-c1cc3c(c(=O)n1C2)COC(=O)[C@]3(O)CC [Irinotecan] + CS(=O)(=O)N1CCN(Cc2cc3nc(-c4cccc5[nH]ncc45)nc(N4CCOCC4)c3s2)CC1 [Pictilisib] (partner 1 µM)
Method in brief: as §1

RU-SKI 43 + OSI-027 = compound: CC[C@@H](C)CNCC(=O)N1CCC2=C([C@@H]1COC3=CC=CC(=C3)C)C=CS2 [RU-SKI 43] + COc1cccc2cc(-c3nc([C@H]4CC[C@H](C(=O)O)CC4)n4ncnc(N)c34)[nH]c12 [OSI-027] (partner 0.5 µM)
Method in brief: as §1

RU-SKI 43 + Vorinostat = compound: CC[C@@H](C)CNCC(=O)N1CCC2=C([C@@H]1COC3=CC=CC(=C3)C)C=CS2 [RU-SKI 43] + O=C(CCCCCCC(=O)Nc1ccccc1)NO [Vorinostat] (partner 1 µM)
Method in brief: as §1

Cell Line	relative viability (RU-SKI 43 + Pemetrexed; first compound 0.1 µM)	relative viability (RU-SKI 43 + Pemetrexed; first compound 0.3162 µM)	relative viability (RU-SKI 43 + Pemetrexed; first compound 1 µM)	relative viability (RU-SKI 43 + Pemetrexed; first compound 3.162 µM)	relative viability (RU-SKI 43 + Pemetrexed; first compound 10 µM)	relative viability (Irinotecan + Pictilisib; first compound 0.6325 µM)	relative viability (Irinotecan + Pictilisib; first compound 2 µM)	relative viability (Irinotecan + Pictilisib; first compound 6.325 µM)	relative viability (Irinotecan + Pictilisib; first compound 20 µM)	relative viability (RU-SKI 43 + OSI-027; first compound 0.1 µM)	relative viability (RU-SKI 43 + OSI-027; first compound 0.3162 µM)	relative viability (RU-SKI 43 + OSI-027; first compound 1 µM)	relative viability (RU-SKI 43 + OSI-027; first compound 3.162 µM)	relative viability (RU-SKI 43 + OSI-027; first compound 10 µM)	relative viability (RU-SKI 43 + Vorinostat; first compound 0.1 µM)	relative viability (RU-SKI 43 + Vorinostat; first compound 0.3162 µM)	relative viability (RU-SKI 43 + Vorinostat; first compound 1 µM)	relative viability (RU-SKI 43 + Vorinostat; first compound 3.162 µM)	relative viability (RU-SKI 43 + Vorinostat; first compound 10 µM)
NCI-H1755	0.374	0.466	0.378	0.377	0.637	0.249	0.382	0.224	0.361	0.757	0.825	0.781	0.841	0.699	0.746	0.862	0.848	0.809	0.859
NCI-H1793	1.01	0.995	0.941	0.772	1.02		0.259	0.189	0.29	0.257	0.21	0.348	0.28	0.257	0.799	0.742	0.872	0.792	0.602
NCI-H1915	0.483	0.693	0.602	0.515	0.443	0.341	0.261	0.185	0.195	0.641	0.706	0.703	0.686	0.614	0.563	0.602	0.639	0.54	0.549
NCI-H1944	0.614	0.711	0.566	0.619	0.707	0.235	0.251	0.181	0.214	0.428	0.397	0.503	0.445	0.404	0.548	0.623	0.522	0.499	0.513
NCI-H1975	0.311	0.298	0.341	0.327	0.292	0.339	0.316	0.204	0.154	0.749	0.829	1.02	0.779	0.604	0.736	0.781	0.749	0.723	0.618
NCI-H1993	0.59	0.625	0.558	0.624	0.465	0.695	0.816	0.628	0.443	0.53	0.527	0.596	0.59	0.575	0.717	0.969	0.769	1.08	0.659
NCI-H2009	1.06	1.17	1.14	1.06	1.08	0.342	0.515	0.232	0.0786	0.69	0.599	0.698	0.699	0.601	0.692	0.757	0.751	0.693	0.679
NCI-H2023	0.249	0.259	0.286	0.21	0.243	0.148	0.204	0.113	0.0527	0.442	0.455	0.465	0.413	0.372	0.742	0.918	0.772	0.815	0.602
NCI-H2085	1.02	0.899	0.894	0.85	0.845	0.453	0.403	0.313	0.307	0.705	0.678	0.696	0.834	0.552	0.705	0.659	0.808	0.793	0.726
NCI-H2087	0.684	0.762	0.714	0.694	0.692	0.311	0.288	0.233	0.264	0.666	0.56	0.705	0.563	0.516	0.818	1.02	0.985	0.789	0.57
NCI-H2126	0.724	0.745	0.682	0.739	0.709		0.41	0.286	0.335	0.681	0.627	0.777	0.678	0.715	0.793	0.864	0.819	0.906	0.781
NCI-H2170	0.251	0.297	0.262	0.275	0.243	0.32	0.242	0.224	0.157	0.709	0.745	0.761	0.809	0.667	0.831	1.06	0.763	0.843	0.889
NCI-H2228	0.288	0.353	0.302	0.376	0.299	0.408	0.562	0.399	0.395	0.651	0.722	0.483	0.689	0.471	0.603	0.928	0.828	0.727	0.596
NCI-H2347	0.404	0.513	0.431	0.52	0.538	0.542	0.355	0.36	0.461	0.414	0.414	0.697	0.389	0.328	0.511	0.621	0.674	0.595	0.566
NCI-H2405	1.16	1.14	1.11	1.21	1.13		0.477	0.326	0.132	0.618	0.56	0.615	0.684	0.569	1.1	1.11	1.18	1.02	1
NCI-H3122	0.202	0.216	0.198	0.193	0.19	0.514	0.349	0.202	0.174	1.02	1.23	1.31	1.01	0.96	1.06	1.36	1.04	0.467	1.06
